From US20240262803A1, “COMPOUNDS, COMPOSITIONS AND METHODS OF TREATING DISORDERS” (Chungdu Anticancer Bioscience Ltd, priority 2021, published 2024)

What was measured:
[1] = test system: liver cancer cell line T2 HCC; assay: Minimal effective concentration that elicits polyploidy, T2 HCC; assay type: cell-based; conditions: Mus musculus, read-out: MECP: Minimal effective concentration that elicits polyploidy
[2] = test system: lung cancer cell line NCI-H460; assay: MTT assay of cellular proliferation, NCI-H460; assay type: cell-based; conditions: Homo sapiens, read-out: EC50: Concentration that inhibits 50% of proliferation
Procedure: (§1) Six lung cancer cell lines (NCI-H23, NCI-H460, NCI-H596, NCI-H2170, Calu-6 and A549), two colon cancer cell lines (HCT116 and SW460), one breast cancer cell line MDA-MB-231, one gastric cancer cell line NCI-N87, one prostate cancer cell line DU145, one cervical cancer cell line Hela, and one glioblastoma cell line T98G were obtained from ATCC. The T2 HCC cell line was derived from a mouse liver cancer model initiated by a transgene of MYC (Reference). All cell lines were cultured in DMEM (Gibco, Cleveland, TN, USA) supplemented with 5% fetal bovine serum (Gibco), penicillin (100 U/mL)-streptomycin (100 μg/mL) (Gibco, Cat. No. 15140-122), 2 mM L-glutamine (Gibco, 200 mM solution, Cat. No. 25030081), and 1 mM sodium pyruvate (Gibco, 100 mM solution, Cat. No. 11360070) at 37° C. in a humidified incubator that was maintained at 5% CO2.
(§2) The MTT assay measures cellular metabolic activity as a proxy for cell viability and involves the conversion of the water-soluble yellow dye MTT [3-(4,5-dimethylthiazol-2-yl)-2,5-diphenyltetrazolium bromide] into an insoluble purple formazan by the action of mitochondrial reductase. Formazan is then solubilized and its concentration is determined by measuring the optical density (OD) value at a wavelength of 570 nm. The value is in proportional to the number of live cells with excellent linearity up to ˜10^6 cells per well. The MTT assay was used to determine the EC50 value, the concentration of a compound that leads to 50% inhibition of cellular proliferation. Briefly, cells were split when growing to the mid-Log phase. Cells in 100 μL of culture medium were seeded into each well of 96-well microplates and cultivated for 15˜24 hours to reach a confluence of 20˜30% and were then exposed to drugs at concentrations ranging from 1 nM to 10 μM. At the endpoint, 20 μL of a MTT stock solution in DMSO (5 mg/mL) was added to each well that contains […] of DMEM. The microplates were left in the cell culture incubator for 3˜4 h before subjected to solubilization and determination of formazan at A570 in a microplate reader (BioTek ELX808iu). […] Therefore, these compounds might hold a broad utility in the treatment of a large variety of human malignancies.

[3] = test system: gastric cancer cell line NCI-N87; assay: Minimal effective concentration that elicits polyploidy, NCI-N87; assay type: cell-based; conditions: Homo sapiens, read-out: MECP: Minimal effective concentration that elicits polyploidy
[4] = test system: breast cancer cell line MDA-MB-231; assay: MTT assay of cellular proliferation, MDA-MB-231; assay type: cell-based; conditions: Homo sapiens, read-out: EC50: Concentration that inhibits 50% of proliferation
How it was run: (§3)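 Cells were grown in DMEM with 5% FBS, glutamine and pyruvate at 37 °C, 5% CO2, seeded to reach 20˜30% confluence after 15˜24 h, then exposed to compounds from 1 nM to 10 μM. Formazan from MTT was read at 570 nm, and EC50 was the concentration giving 50% inhibition of proliferation.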

[5] = test system: lung cancer cell line NCI-H23; assay: MTT assay of cellular proliferation, NCI-H23; assay type: cell-based; conditions: Homo sapiens, read-out: EC50: Concentration that inhibits 50% of proliferation
How it was run: as §3

[6] = test system: prostate cancer cell line DU145; assay: MTT assay of cellular proliferation, DU145; assay type: cell-based; conditions: Homo sapiens, DU-145, read-out: EC50: Concentration that inhibits 50% of proliferation
Procedure: as §1, §2

[7] = test system: breast cancer cell line MDA-MB-231; assay: Minimal effective concentration that elicits polyploidy, MDA-MB-231; assay type: cell-based; conditions: Homo sapiens, read-out: MECP: Minimal effective concentration that elicits polyploidy
[8] = test system: lung cancer cell line NCI-H460; assay: Minimal effective concentration that elicits polyploidy, NCI-H460; assay type: cell-based, human
[9] = test system: glioblastoma cell line T98G; assay: Minimal effective concentration that elicits polyploidy, T98G; assay type: cell-based, human
[10] = test system: lung cancer cell line NCI-H596; assay: Minimal effective concentration that elicits polyploidy, NCI-H596; assay type: cell-based, human
[11] = test system: liver cancer cell line T2 HCC; assay: MTT assay of cellular proliferation, T2 HCC; assay type: cell-based; conditions: Mus musculus, read-out: EC50: Concentration that inhibits 50% of proliferation
How it was run: as §3

[12] = test system: lung cancer cell line A549; assay: Minimal effective concentration that elicits polyploidy, A549; assay type: cell-based; conditions: Homo sapiens, read-out: MECP: Minimal effective concentration that elicits polyploidy
[13] = test system: lung cancer cell line Calu-6; assay: MTT assay of cellular proliferation, Calu-6; assay type: cell-based; conditions: Homo sapiens, read-out: EC50: Concentration that inhibits 50% of proliferation
Procedure: as §1, §2

[14] = test system: prostate cancer cell line DU145; assay: Minimal effective concentration that elicits polyploidy, DU145; assay type: cell-based, human
RPEMYC^H2B-GFP cells = assay: Mechanism-informed phenotypic screening assay (mitotic arrest, polyploidy; GE IN-Cell Analyzer 2000); assay type: cell-based; conditions: 20 nM to 20 μM, 24, 48 or 72 hours, read-out: Mitotic Arrest (≥5%)
[15] = test system: lung cancer cell line Calu-6; assay: Minimal effective concentration that elicits polyploidy, Calu-6; assay type: cell-based, human
[16] = test system: lung cancer cell line NCI-H596; assay: MTT assay of cellular proliferation, NCI-H596; assay type: cell-based; conditions: Homo sapiens, read-out: EC50: Concentration that inhibits 50% of proliferation
Procedure: as §1, §2

[17] = test system: lung cancer cell line NCI-H23; assay: Minimal effective concentration that elicits polyploidy, NCI-H23; assay type: cell-based; conditions: Homo sapiens, read-out: MECP: Minimal effective concentration that elicits polyploidy
[18] = test system: colon cancer cell line HCT116; assay: Minimal effective concentration that elicits polyploidy, HCT116; assay type: cell-based; conditions: Homo sapiens, HCT-116, read-out: MECP: Minimal effective concentration that elicits polyploidy
[19] = test system: colon cancer cell line HCT116; assay: MTT assay of cellular proliferation, HCT116; assay type: cell-based; conditions: Homo sapiens, HCT-116, read-out: EC50: Concentration that inhibits 50% of proliferation
How it was run: as §3

[20] = test system: lung cancer cell line NCI-H2170; assay: Minimal effective concentration that elicits polyploidy, NCI-H2170; assay type: cell-based, human
[21] = test system: lung cancer cell line NCI-H2170; assay: MTT assay of cellular proliferation, NCI-H2170; assay type: cell-based; conditions: Homo sapiens, read-out: EC50: Concentration that inhibits 50% of proliferation
Procedure: as §1, §2

[22] = test system: cervical cancer cell line Hela; assay: Minimal effective concentration that elicits polyploidy, Hela; assay type: cell-based; conditions: Homo sapiens, read-out: MECP: Minimal effective concentration that elicits polyploidy

Row | EC50 [2] [nM] | EC50 [4] [nM] | EC50 [5] [nM] | EC50 [6] [nM] | EC50 [11] [nM] | EC50 [13] [nM] | EC50 [16] [nM] | EC50 [19] [nM] | Structure (SMILES) | minimal effective concentration [1] [µM] | minimal effective concentration [3] [µM] | minimal effective concentration [7] [µM] | MECP: Minimal effective concentration that elicits polyploidy [8] | MECP: Minimal effective concentration that elicits polyploidy [9] | MECP: Minimal effective concentration that elicits polyploidy [10] | MECP: Minimal effective concentration that elicits polyploidy [14] | minimal effective concentration (RPEMYC^H2B-GFP cells) [µM] | MECP: Minimal effective concentration that elicits polyploidy [15] | minimal effective concentration [17] [µM] | minimal effective concentration [18] [µM] | MECP: Minimal effective concentration that elicits polyploidy [20] | further results
1 | 10000 to 30000 | 1 to 1000 | 1 to 1000 | 1 to 1000 | 1 to 1000 | 1 to 1000 | 1 to 1000 | 1 to 1000 | COC(=O)c1cc(OC)cc(Oc2ncccc2-c2ccncc2)c1 [Compound 2, Methyl 3-([3,4′-bipyridin]-2-yloxy)-5-methoxybenzoate] | 0.001 to 1 | 0.001 to 1 | 0.001 to 1 | B (B: 1 μM < conc. ≤ 10 μM) | A (A: 1 nM < conc. ≤ 1 μM) | A (A: 1 nM < conc. ≤ 1 μM) | A (A: 1 nM < conc. ≤ 1 μM) | 1 | A (A: 1 nM < conc. ≤ 1 μM) | 0.001 to 1 | 0.001 to 1 | A (A: 1 nM < conc. ≤ 1 μM) | minimal effective concentration [12]: 1 to 10 µM; EC50 [21]: 1 to 1000 nM; minimal effective concentration [22]: 0.001 to 1 µM
2 | 10000 to 30000 | 1 to 1000 | 1 to 1000 | 1 to 1000 | 1 to 1000 | 1 to 1000 | 1000 to 10000 | 1 to 1000 | COC(=O)c1cc(Oc2ncccc2-c2ccnc(N)n2)cc(C(=O)OC)c1 [Compound 21, dimethyl 5-((3-(2-aminopyrimidin-4-yl)pyridin-2-yl)oxy)isophthalate] | 0.001 to 1 | 0.001 to 1 | 0.001 to 1 | B (B: 1 μM < conc. ≤ 10 μM) | B (B: 1 μM < conc. ≤ 10 μM) | A (A: 1 nM < conc. ≤ 1 μM) | A (A: 1 nM < conc. ≤ 1 μM) | 1 | A (A: 1 nM < conc. ≤ 1 μM) | 0.001 to 1 | 0.001 to 1 | A (A: 1 nM < conc. ≤ 1 μM) | EC50 [21]: 1 to 1000 nM; minimal effective concentration [22]: 0.001 to 1 µM
3 | 10000 to 30000 | 1 to 1000 | 1 to 1000 | 1 to 1000 | 1 to 1000 | 1 to 1000 | 10000 to 30000 | 1 to 1000 | COC(=O)c1cc(Oc2ncccc2-c2ccncc2)cc(C(=O)OC)c1 [Compound 1, Dimethyl 5-([3,4′-bipyridin]-2-yloxy)isophthalate] | 0.001 to 1 | 0.001 to 1 | 0.001 to 1 | B (B: 1 μM < conc. ≤ 10 μM) | A (A: 1 nM < conc. ≤ 1 μM) | A (A: 1 nM < conc. ≤ 1 μM) | A (A: 1 nM < conc. ≤ 1 μM) | 1 | A (A: 1 nM < conc. ≤ 1 μM) | 0.001 to 1 | 0.001 to 1 | A (A: 1 nM < conc. ≤ 1 μM) | minimal effective concentration [12]: 1 to 10 µM; EC50 [21]: 1 to 1000 nM; minimal effective concentration [22]: 0.001 to 1 µM
4 | 10000 to 30000 | 1 to 1000 | 1 to 1000 | 1 to 1000 | 1000 to 10000 | 1 to 1000 | 1 to 1000 | 1 to 1000 | COC(=O)c1cc(OC)cc(Oc2ncccc2-c2ccnc(N)n2)c1 [Compound 23, Methyl 3-((3-(2-aminopyrimidin-4-yl)pyridin-2-yl)oxy)-5-methoxybenzoate] | 0.001 to 1 | 0.001 to 1 | 0.001 to 1 | B (B: 1 μM < conc. ≤ 10 μM) | A (A: 1 nM < conc. ≤ 1 μM) | A (A: 1 nM < conc. ≤ 1 μM) | A (A: 1 nM < conc. ≤ 1 μM) | 1 | A (A: 1 nM < conc. ≤ 1 μM) | 0.001 to 1 | 0.001 to 1 | A (A: 1 nM < conc. ≤ 1 μM) | minimal effective concentration [12]: 1 to 10 µM; EC50 [21]: 1 to 1000 nM; minimal effective concentration [22]: 0.001 to 1 µM
